Source: patent US9814704B2, “Substituted pyrrolo[2,3-b]pyridines as MLK inhibitors” (The University of Rochester, priority 2008, dated 2017)
pIC50: −log10 of the molar value.

The compounds below were run against MLK3 (Homo sapiens (Human), UniProt Q16584) (assay: Radiometric Filter Plate MLK3 Assay). Settings: 200 ng (130 nM) MLK3, 1 μM inactive MKK7b, 2 μM cold ATP (Km), 33P ATP, twenty minute incubation; read-out: MK3 IC50.
Type: biochemical
Experimental: Radiometric Filter Plate MLK3 Assay
After a twenty minute incubation, the reactions were washed through filter plates and read on a scintillation counter. Results are shown in Table 4 below, in which +++ indicates ≦0.1 μM, ++ indicates >0.1 μM and ≦1 μM, and + indicates >1 μM.

Chain of MLK3 (Q16584 whole entry): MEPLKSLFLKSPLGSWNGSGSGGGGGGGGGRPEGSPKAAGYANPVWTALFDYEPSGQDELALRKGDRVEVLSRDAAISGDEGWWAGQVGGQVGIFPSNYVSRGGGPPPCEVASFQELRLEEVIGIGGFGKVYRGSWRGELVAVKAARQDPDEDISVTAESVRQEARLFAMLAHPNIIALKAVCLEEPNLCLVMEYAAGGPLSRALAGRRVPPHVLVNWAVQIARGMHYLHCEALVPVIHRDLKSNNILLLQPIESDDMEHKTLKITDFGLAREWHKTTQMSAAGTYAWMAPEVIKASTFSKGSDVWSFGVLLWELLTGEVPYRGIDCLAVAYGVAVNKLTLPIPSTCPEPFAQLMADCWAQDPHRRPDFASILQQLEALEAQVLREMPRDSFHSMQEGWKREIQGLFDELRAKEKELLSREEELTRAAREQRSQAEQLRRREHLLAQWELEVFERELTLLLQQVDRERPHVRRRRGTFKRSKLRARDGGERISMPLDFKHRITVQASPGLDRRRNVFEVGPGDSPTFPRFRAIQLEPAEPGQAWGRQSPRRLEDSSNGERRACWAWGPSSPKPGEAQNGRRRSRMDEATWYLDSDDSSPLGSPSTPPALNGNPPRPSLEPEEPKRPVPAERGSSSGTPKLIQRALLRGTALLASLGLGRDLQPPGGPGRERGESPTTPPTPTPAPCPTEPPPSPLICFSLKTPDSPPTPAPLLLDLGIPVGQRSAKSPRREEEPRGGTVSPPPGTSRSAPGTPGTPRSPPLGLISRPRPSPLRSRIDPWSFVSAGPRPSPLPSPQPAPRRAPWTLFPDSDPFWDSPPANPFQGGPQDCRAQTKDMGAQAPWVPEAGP

SMILES | pIC50
COc1ccc(-n2c(=O)[nH]c3ncc(-c4ccncc4)nc32)cc1 [Example 71, 1-(4-methoxyphenyl)-6-(pyridin-4-yl)-1H-imidazo[4,5-b]pyrazin-2(3H)-one] | < 6.00
CN1CCN(Cc2cccc(-c3cnc4[nH]cc(-c5ccc6[nH]ccc6c5)c4c3)c2)CC1=O [Example 143, 4-{3-[3-(1H-indol-5-yl)-1H-pyrrolo[2,3-b]pyridin-5-yl]-benzyl}-1-methyl-piperazin-2-one] | > 7.00
O=c1[nH]c2ncc(-c3ccc(O)cc3)nc2n1CC1CC1 [Example 81, 1-(cyclopropylmethyl)-6-(4-hydroxyphenyl)-1H-imidazo[4,5-b]pyrazin-2(3H)-one] | < 6.00
COc1ccc(-c2cnc3[nH]cc(-c4ccc(C(N)=O)cc4)c3c2)cc1OC [Example 26, 4-(5-(3,4-dimethoxyphenyl)-1H-pyrrolo[2,3-b]pyridin-3-yl)benzamide] | > 7.00
COc1cc(-c2cnc3[nH]cc(-c4ccc5[nH]ccc5c4)c3n2)ccc1OCCN1CCOCC1 [Example 39, 4-(2-(4-(7-(1H-indol-5-yl)-5H-pyrrolo[3,2-b]pyrazin-2-yl)-2-methoxyphenoxy)ethyl)morpholine] | > 7.00
Nc1ccc(-c2cnc3[nH]cc(-c4ccc(F)c(Cl)c4)c3c2)cn1 [Example 29, 5-(3-(3-chloro-4-fluorophenyl)-1H-pyrrolo[2,3-b]pyridin-5-yl)pyridin-2-amine] | < 6.00
COc1cc(-c2cnc3[nH]c(=O)n(-c4ccc5[nH]ccc5c4)c3n2)ccc1O [Example 55, 6-(4-hydroxy-3-methoxyphenyl)-1-(1H-indol-5-yl)-1H-imidazo[4,5-b]pyrazin-2(3H)-one] | > 7.00
COc1cc(-c2cnc3[nH]cc(-c4ccc(C(N)=O)cc4)c3c2)cc(OC)c1OC [Example 25, 4-(5-(3,4,5-trimethoxyphenyl)-1H-pyrrolo[2,3-b]pyridin-3-yl)benzamide] | > 7.00
CC(C)(C)OC(=O)N1CCN(C(=O)c2cccc(-c3cnc4[nH]cc(-c5ccc(C(N)=O)cc5)c4c3)c2)CC1 [Example 151, 4-{3-[3-(4-carbamoyl-phenyl)-1H-pyrrolo[2,3-b]pyridin-5-yl]-benzoyl}-piperazine-1-carboxylic acid tert-butyl ester] | > 7.00
Cc1cc2cc(-n3c(=O)[nH]c4ncc(-c5ccncc5)nc43)ccc2[nH]1 [Example 85, 1-(2-methyl-1H-indol-5-yl)-6-(pyridin-4-yl)-1H-imidazo[4,5-b]pyrazin-2(3H)-one] | < 6.00
COc1ccc(-n2c(=O)[nH]c3ncc(-c4ccc(O)cc4)nc32)cc1 [Example 70, 6-(4-hydroxyphenyl)-1-(4-methoxyphenyl)-1H-imidazo[4,5-b]pyrazin-2(3H)-one] | < 6.00
O=c1[nH]c2ncc(-c3ccncc3)nc2n1CC1CC1 [Example 82, 1-(cyclopropylmethyl)-6-(pyridin-4-yl)-1H-imidazo[4,5-b]pyrazin-2(3H)-one] | < 6.00
COc1cc(-c2cnc3[nH]cc(-c4ccc5[nH]ccc5c4)c3c2)ccc1OCCN(C)C [Example 35, 2-(4-(3-(1H-indol-5-yl)-1H-pyrrolo[2,3-b]pyridin-5-yl)-2-methoxyphenoxy)-N,N-dimethylethanamine] | < 6.00
O=c1[nH]c2ncc(-c3ccncc3)nc2n1C1CCCC1 [Example 77, 1-cyclopentyl-6-(pyridin-4-yl)-1H-imidazo[4,5-b]pyrazin-2(3H)-one] | < 6.00
CNC(=O)c1ccc(-c2c[nH]c3ncc(-c4cc(OC)c(OC)c(OC)c4)cc23)cc1 [Example 164, N-methyl-4-[5-(3,4,5-trimethoxy-phenyl)-1H-pyrrolo[2,3-b]pyridin-3-yl]-benzamide] | < 6.00
O=c1[nH]c2ncc(-c3cc(Cl)cc(Cl)c3)nc2n1CC1CC1 [Example 80, 1-(cyclopropylmethyl)-6-(3,5-dichlorophenyl)-1H-imidazo[4,5-b]pyrazin-2(3H)-one] | < 6.00
COc1cc(-c2cnc3[nH]c(=O)n(CC4CC4)c3c2)cc(OC)c1OC [Example 125, 1-(cyclopropylmethyl)-6-(3,4,5-trimethoxyphenyl)-1H-imidazo[4,5-b]pyridin-2(3H)-one] | < 6.00
O=c1[nH]c2ncc(-c3ccncc3)nc2n1-c1ccc2scnc2c1 [Example 98, 1-(benzo[d]thiazol-5-yl)-6-(pyridin-4-yl)-1H-imidazo[4,5-b]pyrazin-2(3H)-one] | < 6.00
O=c1[nH]c2ncc(-c3ccc4cc[nH]c4c3)nc2n1-c1ccc2[nH]ccc2c1 [Example 56, 1-(1H-indol-5-yl)-6-(1H-indol-6-yl)-1H-imidazo[4,5-b]pyrazin-2(3H)-one] | < 6.00
COc1cc(-c2cnc3[nH]c(=O)n(C4CCCC4)c3n2)cc(OC)c1OC [Example 74, 1-cyclopentyl-6-(3,4,5-trimethoxyphenyl)-1H-imidazo[4,5-b]pyrazin-2(3H)-one] | > 7.00
COc1cc(OC)c(-c2cnc3[nH]c(=O)n(C4CCCC4)c3n2)c(OC)c1 [Example 94, 1-cyclopentyl-6-(2,4,6-trimethoxyphenyl)-1H-imidazo[4,5-b]pyrazin-2(3H)-one] | < 6.00
COc1cc(-c2cnc3c(c2)C(=Cc2cccc(C(N)=O)c2)C(=O)N3)cc(OC)c1OC [Example 132, 3-[2-oxo-5-(3,4,5-trimethoxy-phenyl)-1,2-dihydro-pyrrolo[2,3-b]pyridin-3-ylidenemethyl]-benzamide] | < 6.00
COc1cc(-c2cnc3[nH]c(=O)n(-c4ccc(N5CCOCC5)nc4)c3n2)cc(OC)c1OC [Example 109, 1-(6-morpholinopyridin-3-yl)-6-(3,4,5-trimethoxyphenyl)-1H-imidazo[4,5-b]pyrazin-2(3H)-one] | < 6.00
COc1cc(-c2cnc3c(c2)C(=Cc2ccccc2)C(=O)N3)cc(OC)c1OC [Example 130, 3-benzylidene-5-(3,4,5-trimethoxy-phenyl)-1,3-dihydro-pyrrolo[2,3-b]pyridin-2-one] | < 6.00
COc1cc(-c2cnc3[nH]cc(-c4ccc(CNC(C)=O)cc4)c3c2)cc(OC)c1OC [Example 159, N-{4-[5-(3,4,5-Trimethoxy-phenyl)-1H-pyrrolo[2,3-b]pyridin-3-yl]-benzyl}-acetamide] | > 7.00
Cc1cc(C)cc(-c2cnc3[nH]c(=O)n(-c4ccc5[nH]ccc5c4)c3n2)c1 [Example 46, 6-(3,5-dimethylphenyl)-1-(1H-indol-5-yl)-1H-imidazo[4,5-b]pyrazin-2(3H)-one] | < 6.00

Same assay, conditions: read-out: MK3 IC50

SMILES | pIC50
COc1ccc(-c2cnc3[nH]c(=O)n(-c4cnc5[nH]ccc5c4)c3n2)cc1OC [Example 111, 6-(3,4-dimethoxyphenyl)-1-(1H-pyrrolo[2,3-b]pyridin-5-yl)-1H-imidazo[4,5-b]pyrazin-2(3H)-one] | 6.00 to 7.00
O=c1[nH]c2ncc(-c3ccc(O)cc3)nc2n1-c1ccc2[nH]ccc2c1 [Example 45, 6-(4-hydroxyphenyl)-1-(1H-indol-5-yl)-1H-imidazo[4,5-b]pyrazin-2(3H)-one] | 6.00 to 7.00
COc1cc(-c2cnc3c(c2)C(=Cc2cccnc2)C(=O)N3)cc(OC)c1OC (racemic) [Example 128, 3-pyridin-3-ylmethylene-5-(3,4,5-trimethoxy-phenyl)-1,3-dihydro-pyrrolo[2,3-b]pyridin-2-one] | 6.00 to 7.00
COc1cc(-c2cnc3[nH]c(=O)n(-c4ccccc4)c3n2)cc(OC)c1OC [Example 105, 1-phenyl-6-(3,4,5-trimethoxyphenyl)-1H-imidazo[4,5-b]pyrazin-2(3H)-one] | 6.00 to 7.00
O=c1[nH]c2ncc(-c3ccc4c(c3)OCCO4)nc2n1-c1ccc2[nH]ccc2c1 [Example 63, 6-(2,3-dihydrobenzo[b][1,4]dioxin-6-yl)-1-(1H-indol-5-yl)-1H-imidazo[4,5-b]pyrazin-2(3H)-one] | 6.00 to 7.00
COc1ccc(-c2cnc3[nH]c(=O)n(-c4ccccc4)c3n2)cc1OC [Example 106, 6-(3,4-dimethoxyphenyl)-1-phenyl-1H-imidazo[4,5-b]pyrazin-2(3H)-one] | 6.00 to 7.00
COc1ccc(-c2cnc3[nH]c(=O)n(-c4ccc5[nH]cnc5c4)c3n2)cc1OC [Example 103, 1-(1H-benzo[d]imidazol-5-yl)-6-(3,4-dimethoxyphenyl)-1H-imidazo[4,5-b]pyrazin-2(3H)-one] | 6.00 to 7.00
NC(=O)c1ccc(-c2c[nH]c3ncc(-c4ccc(N)nc4)cc23)cc1 [Example 28, 4-(5-(6-aminopyridin-3-yl)-1H-pyrrolo[2,3-b]pyridin-3-yl)benzamide] | 6.00 to 7.00
COc1cc(-c2cnc3[nH]cc(-c4ccc(C(N)=O)cc4)c3c2)ccc1N [Example 27, 4-(5-(4-amino-3-methoxyphenyl)-1H-pyrrolo[2,3-b]pyridin-3-yl)benzamide] | 6.00 to 7.00
CC(=O)N1CCN(C(=O)c2ccc(-c3cnc4[nH]cc(-c5ccc(C(N)=O)cc5)c4c3)cc2)CC1 [Example 150, 4-{5-[4-(4-acetyl-piperazine-1-carbonyl)-phenyl]-1H-pyrrolo[2,3-b]pyridin-3-yl}-benzamide] | 6.00 to 7.00
COc1cc(-c2cnc3[nH]cc(-c4ccc(-c5ncc[nH]5)cc4)c3c2)cc(OC)c1OC [Example 167, 3-[4-(1H-imidazol-2-yl)-phenyl]-5-(3,4,5-trimethoxy-phenyl)-1H-pyrrolo[2,3-b]pyridine] | 6.00 to 7.00
O=c1[nH]c2ncc(-c3cc(F)c(O)cc3F)nc2n1-c1ccc2[nH]ccc2c1 [Example 58, 6-(2,5-difluoro-4-hydroxyphenyl)-1-(1H-indol-5-yl)-1H-imidazo[4,5-b]pyrazin-2(3H)-one] | 6.00 to 7.00
COc1ccc(-c2cnc3[nH]c(=O)n(-c4ccc5cn[nH]c5c4)c3n2)cc1OC [Example 91, 6-(3,4-dimethoxyphenyl)-1-(1H-indazol-6-yl)-1H-imidazo[4,5-b]pyrazin-2(3H)-one] | 6.00 to 7.00
CC(=O)N1CCN(Cc2ccc(-c3cnc4[nH]cc(-c5ccc6[nH]ccc6c5)c4c3)cc2)CC1 [Example 140, 1-(4-{4-[3-(1H-indol-5-yl)-1H-pyrrolo[2,3-b]pyridin-5-yl]-benzyl}-piperazin-1-yl)-ethanone] | < 6.00
